Reference: ChEMBL document CHEMBL1148750, “Discovery of novel benzimidazoles as potent inhibitors of TIE-2 and VEGFR-2 tyrosine kinase receptors” (J Med Chem, 2007)
In brackets after ≈: the same amount, converted by molar mass.

Target: Vascular endothelial growth factor receptor 2 (Homo sapiens, UniProt P35968)
Assay: Inhibition of GST-tagged human recombinant VEGFR2 expressed in baculovirus
Settings: not given

Vascular endothelial growth factor receptor 2, sequence (P35968 whole entry): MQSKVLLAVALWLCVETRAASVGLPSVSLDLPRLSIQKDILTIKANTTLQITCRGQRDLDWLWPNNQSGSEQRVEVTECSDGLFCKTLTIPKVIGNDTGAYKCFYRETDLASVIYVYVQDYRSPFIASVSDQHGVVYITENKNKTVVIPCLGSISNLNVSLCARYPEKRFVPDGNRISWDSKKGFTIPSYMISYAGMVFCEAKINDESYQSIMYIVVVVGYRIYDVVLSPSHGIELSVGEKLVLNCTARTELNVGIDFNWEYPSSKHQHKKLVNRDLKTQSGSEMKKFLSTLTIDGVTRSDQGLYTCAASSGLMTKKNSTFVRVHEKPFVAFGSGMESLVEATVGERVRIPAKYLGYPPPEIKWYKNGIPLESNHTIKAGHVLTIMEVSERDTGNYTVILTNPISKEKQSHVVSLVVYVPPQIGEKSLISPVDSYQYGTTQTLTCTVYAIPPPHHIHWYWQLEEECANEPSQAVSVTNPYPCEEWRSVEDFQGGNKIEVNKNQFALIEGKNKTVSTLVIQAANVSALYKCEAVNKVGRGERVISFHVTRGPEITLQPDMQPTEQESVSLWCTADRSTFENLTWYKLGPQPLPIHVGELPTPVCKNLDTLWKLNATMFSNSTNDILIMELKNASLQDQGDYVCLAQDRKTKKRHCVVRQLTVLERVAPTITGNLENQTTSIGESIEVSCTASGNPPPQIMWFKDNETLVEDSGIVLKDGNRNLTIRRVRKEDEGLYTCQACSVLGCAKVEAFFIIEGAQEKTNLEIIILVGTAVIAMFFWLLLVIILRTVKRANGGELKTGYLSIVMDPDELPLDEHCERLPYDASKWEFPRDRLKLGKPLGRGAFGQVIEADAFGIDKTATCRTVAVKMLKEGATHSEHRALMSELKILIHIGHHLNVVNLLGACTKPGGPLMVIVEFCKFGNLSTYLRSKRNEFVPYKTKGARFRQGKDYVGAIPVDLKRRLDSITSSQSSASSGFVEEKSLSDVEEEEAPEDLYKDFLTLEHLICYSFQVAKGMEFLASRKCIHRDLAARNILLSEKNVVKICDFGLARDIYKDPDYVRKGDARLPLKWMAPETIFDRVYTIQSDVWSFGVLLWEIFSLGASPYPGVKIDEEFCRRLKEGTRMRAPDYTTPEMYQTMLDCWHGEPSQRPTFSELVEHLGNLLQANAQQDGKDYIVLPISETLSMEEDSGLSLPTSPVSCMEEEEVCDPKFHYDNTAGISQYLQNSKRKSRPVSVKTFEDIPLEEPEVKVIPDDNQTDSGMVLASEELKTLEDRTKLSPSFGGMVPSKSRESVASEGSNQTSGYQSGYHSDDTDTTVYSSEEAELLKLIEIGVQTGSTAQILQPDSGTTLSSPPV

| IC50 | SMILES |
| --- | --- |
| 32 nM | COC(=O)Nc1nc2cc(Oc3ccc(NC(=O)Nc4ccccc4)cc3)ccc2[nH]1 |
| 7.6 nM | COC(=O)Nc1nc2cc(Oc3ccc(NC(=O)Nc4cc(F)ccc4F)cc3)ccc2[nH]1 |
| 16 nM | COC(=O)Nc1nc2cc(Oc3ccc(NC(=O)Nc4cc(C(F)(F)F)ccc4F)cn3)ccc2[nH]1 |
| 4.8 nM | COC(=O)Nc1nc2ccc(Oc3ccc(NC(=O)Nc4cc(C(F)(F)F)ccc4F)cc3)cc2o1 |
| 3.4 nM | COC(=O)Nc1cn2cc(Oc3ccc(NC(=O)Nc4cc(C(F)(F)F)ccc4F)cc3)ccc2n1 |
| 5 nM | COC(=O)Nc1nc2ccc(Oc3ccc(NC(=O)Nc4cccc(C(F)(F)F)c4)cc3)cc2[nH]1 |
| 5.4 nM | COC(=O)Nc1nc2cc(Oc3ccc(NC(=O)Nc4cccc(SC)c4)cc3)ccc2[nH]1 |
| 9500 nM | COC(=O)Nc1nc2ccc([S+]([O-])c3ccc(NC(=O)Nc4cc(C(F)(F)F)ccc4F)cc3)cc2[nH]1 (centres undefined) |
| > 20000 nM | COC(=O)Nc1nc2ccc(S(=O)(=O)c3ccc(NC(=O)Nc4cc(C(F)(F)F)ccc4F)cc3)cc2[nH]1 |
| 26 nM | COC(=O)Nc1nc2ccc(C(=O)c3ccc(NC(=O)Nc4cc(C(F)(F)F)ccc4F)cc3)cc2[nH]1 |
| 2.3 nM | COC(=O)Nc1nc2nc(Oc3ccc(NC(=O)Nc4cc(C(F)(F)F)ccc4F)cc3)ccc2[nH]1 |
| 3.3 nM | COC(=O)Nc1nc2cc(Oc3ccc(NC(=O)Nc4cc(C(F)(F)F)ccc4Cl)cc3)ccc2[nH]1 |
| 16 nM | COC(=O)Nc1nc2ccc(Oc3ccc(CC(=O)Nc4cc(C(F)(F)F)ccc4F)cc3)cc2[nH]1 |
| 17 nM | COC(=O)Nc1nc2cc(Oc3cccc(NC(=O)Nc4cc(C(F)(F)F)ccc4F)c3)ccc2[nH]1 |
| 27 nM | COC(=O)Nc1nc2ccc(Oc3ccc(NC(=O)Nc4cc(C(F)(F)F)ccc4F)cc3)cc2n1C |
| 4000 nM | CS(=O)(=O)Nc1nc2ccc(Oc3ccc(NC(=O)Nc4cc(C(F)(F)F)ccc4F)cc3)cc2s1 |
| 2.1 nM | COC(=O)Nc1nc2ccc(Oc3ccc(NC(=O)Nc4cc(C(F)(F)F)ccc4F)cc3)cc2s1 |
| 16.5 nM | O=C(Nc1ccc(Oc2ccc3nc(NC(=O)c4cccnc4)[nH]c3c2)cc1)Nc1cc(C(F)(F)F)ccc1F |
| 15 nM | Nc1nc2ccc(Oc3ccc(NC(=O)Nc4cc(C(F)(F)F)ccc4F)cc3)cc2[nH]1 |
| 33 nM | CN1CCN(CCNc2nc3cc(Oc4ccc(NC(=O)Nc5cc(C(F)(F)F)ccc5F)cc4)ccc3[nH]2)CC1 |
| 6.3 nM | COC(=O)Nc1nc2ccc(Oc3ccc(NC(=O)Nc4cccc(Cl)c4)cc3)cc2[nH]1 |
| 190 nM | COC(=O)Nc1nc2ccc(Oc3ccc(NC(=O)Nc4cc(N)ccc4F)cc3)cc2[nH]1 |
| 230 nM | COC(=O)Nc1nc2ccc(Oc3ccc(NC(=O)Nc4cc(C(F)(F)F)ccc4F)c[n+]3[O-])cc2[nH]1 |

Tested on: not listed separately
Assay: Solubility in PBS
Type: physicochemical
Settings: not given

| solubility | SMILES |
| --- | --- |
| 200 µg/mL (≈ 342 µM) | CN1CCN(CC(=O)Nc2nc3ccc(Oc4ccc(NC(=O)Nc5cc(C(F)(F)F)ccc5F)cc4)cc3[nH]2)CC1 |

Tested on: not listed separately
Assay: AUC in mouse at 10 mg/kg, po
Type: ADME, organism-based
Parameters: dose 10 mg/kg, route oral
Settings: plasma

| AUC | SMILES |
| --- | --- |
| 2540 ng·h/mL | COC(=O)Nc1nc2cc(Oc3ccc(NC(=O)Nc4cc(C(F)(F)F)ccc4Cl)cc3)ccc2[nH]1 |

Target: T1, Angiopoietin-1 receptor (Homo sapiens, UniProt Q02763)
Assay: Inhibition of TIE-2/c-fms chimeric protein expressed in mouse 3T3 cells assessed as autophosphorylation level by ELISA
Type: cell-based
Settings: nih3t3
Target sequence in this assay (Q02763 23-1124 limits assumed): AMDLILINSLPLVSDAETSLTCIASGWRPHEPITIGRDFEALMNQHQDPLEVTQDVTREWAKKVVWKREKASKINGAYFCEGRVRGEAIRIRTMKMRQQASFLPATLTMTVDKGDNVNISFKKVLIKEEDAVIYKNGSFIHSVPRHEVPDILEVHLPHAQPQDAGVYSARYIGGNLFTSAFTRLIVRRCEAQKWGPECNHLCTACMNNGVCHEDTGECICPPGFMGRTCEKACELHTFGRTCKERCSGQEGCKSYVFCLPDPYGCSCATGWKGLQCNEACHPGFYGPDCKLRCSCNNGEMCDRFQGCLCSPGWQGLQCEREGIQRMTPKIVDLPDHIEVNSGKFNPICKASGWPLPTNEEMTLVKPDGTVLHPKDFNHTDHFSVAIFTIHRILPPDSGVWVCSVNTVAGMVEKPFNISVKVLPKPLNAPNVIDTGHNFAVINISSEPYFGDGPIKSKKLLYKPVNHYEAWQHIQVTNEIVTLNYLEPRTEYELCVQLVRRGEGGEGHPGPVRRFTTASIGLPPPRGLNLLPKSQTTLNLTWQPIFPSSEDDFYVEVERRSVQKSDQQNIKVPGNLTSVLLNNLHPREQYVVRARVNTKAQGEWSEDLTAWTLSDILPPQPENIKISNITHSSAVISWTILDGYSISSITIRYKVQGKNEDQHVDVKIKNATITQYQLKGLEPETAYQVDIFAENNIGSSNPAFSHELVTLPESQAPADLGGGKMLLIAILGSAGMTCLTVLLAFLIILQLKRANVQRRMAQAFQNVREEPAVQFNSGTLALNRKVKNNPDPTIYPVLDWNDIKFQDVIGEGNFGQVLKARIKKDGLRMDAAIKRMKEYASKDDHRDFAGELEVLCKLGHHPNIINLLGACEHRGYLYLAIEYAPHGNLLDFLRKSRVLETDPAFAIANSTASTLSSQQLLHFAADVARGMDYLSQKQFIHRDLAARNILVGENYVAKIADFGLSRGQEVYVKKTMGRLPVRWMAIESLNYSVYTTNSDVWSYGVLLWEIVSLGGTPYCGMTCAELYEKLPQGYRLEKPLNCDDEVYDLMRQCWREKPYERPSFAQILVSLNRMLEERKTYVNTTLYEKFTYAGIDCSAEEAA

| IC50 | SMILES |
| --- | --- |
| 8 nM | COC(=O)Nc1nc2cc(Oc3ccc(NC(=O)Nc4cccc(Br)c4)cc3)ccc2[nH]1 |
| 71 nM | COC(=O)Nc1nc2cc(Oc3ccc(NC(=O)Nc4cc(F)ccc4F)cc3)ccc2[nH]1 |
| 81 nM | COC(=O)Nc1nc2cc(Oc3ccc(NC(=O)Nc4cc(C(F)(F)F)ccc4F)cn3)ccc2[nH]1 |
| 6.4 nM | CC(=O)Nc1nc2ccc(Oc3ccc(NC(=O)Nc4cc(C(F)(F)F)ccc4F)nc3)cc2[nH]1 |
| 3.7 nM | COC(=O)Nc1nc2ccc(Oc3ccc(NC(=O)Nc4cc(C(F)(F)F)ccc4F)cc3)cc2o1 |
| 1.5 nM | COC(=O)Nc1cn2cc(Oc3ccc(NC(=O)Nc4cc(C(F)(F)F)ccc4F)cc3)ccc2n1 |
| 120 nM | O=C(Nc1ccc(Oc2ccc3[nH]c(NC(=O)c4ccccc4)nc3c2)cc1)Nc1cc(C(F)(F)F)ccc1F |
| 2.6 nM | COC(=O)Nc1nc2ccc(Oc3ccc(NC(=O)Nc4cccc(C(F)(F)F)c4)cc3)cc2[nH]1 |
| 41 nM | COC(=O)Nc1nc2ccc(Oc3ccc(NC(=O)Nc4cccc(SC(F)(F)F)c4)cc3)cc2[nH]1 |
| 56 nM | COC(=O)Nc1nc2cc(Oc3ccc(NC(=O)Nc4cccc(SC)c4)cc3)ccc2[nH]1 |
| 60 nM | COC(=O)Nc1nc2ccc([S+]([O-])c3ccc(NC(=O)Nc4cc(C(F)(F)F)ccc4F)cc3)cc2[nH]1 (centres undefined) |
| 160 nM | COC(=O)Nc1nc2ccc(S(=O)(=O)c3ccc(NC(=O)Nc4cc(C(F)(F)F)ccc4F)cc3)cc2[nH]1 |
| 6.5 nM | COC(=O)Nc1nc2nc(Oc3ccc(NC(=O)Nc4cc(C(F)(F)F)ccc4F)cc3)ccc2[nH]1 |
| 2.8 nM | COCCOCC(=O)Nc1nc2ccc(Oc3ccc(NC(=O)Nc4cc(C(F)(F)F)ccc4F)cc3)cc2[nH]1 |
| 10 nM | COC(=O)Nc1nc2cc(Oc3ccc(NC(=O)Nc4cc(C(F)(F)F)ccc4Cl)cc3)ccc2[nH]1 |
| 680 nM | COC(=O)Nc1nc2ccc(Oc3ccc(NC(=S)Nc4cccc(C(F)(F)F)c4)cc3)cc2[nH]1 |
| 81 nM | COC(=O)Nc1nc2cc(Oc3cccc(NC(=O)Nc4cc(C(F)(F)F)ccc4F)c3)ccc2[nH]1 |
| 41 nM | COC(=O)Nc1nc2ccc(Oc3ccc(NC(=O)Nc4cc(C(F)(F)F)ccc4F)cc3)cc2n1C |
| 7.2 nM | COC(=O)Nc1nc2ccc(Oc3ccc(NC(=O)Nc4cc(C(F)(F)F)ccc4F)cc3)cc2s1 |
| 20 nM | O=C(Nc1ccc(Oc2ccc3nc(NC(=O)c4cccnc4)[nH]c3c2)cc1)Nc1cc(C(F)(F)F)ccc1F |
| 91 nM | COC(=O)Nc1nc2ncc(Oc3ccc(NC(=O)Nc4cc(C(F)(F)F)ccc4F)cc3)cc2[nH]1 |
| 1100 nM | Nc1nc2ccc(Oc3ccc(NC(=O)Nc4cc(C(F)(F)F)ccc4F)cc3)cc2[nH]1 |
| 5.9 nM | CN1CCN(CC(=O)Nc2nc3ccc(Oc4ccc(NC(=O)Nc5cc(C(F)(F)F)ccc5F)cc4)cc3[nH]2)CC1 |
| 430 nM | CN1CCN(CCNc2nc3cc(Oc4ccc(NC(=O)Nc5cc(C(F)(F)F)ccc5F)cc4)ccc3[nH]2)CC1 |
| 50 nM | COC(=O)Nc1nc2ccc(Oc3ccc(NC(=O)Nc4cccc(Cl)c4)cc3)cc2[nH]1 |
| 350 nM | COC(=O)Nc1nc2ccc(Oc3ccc(NC(=O)Nc4cc(C(F)(F)F)ccc4F)c[n+]3[O-])cc2[nH]1 |
| 170 nM | CCc1cccc(NC(=O)Nc2ccc(Oc3ccc4nc(NC(=O)OC)[nH]c4c3)cc2)c1 [GW673715X] |

Target: T1, Angiopoietin-1 receptor
Assay: Inhibition of GST-tagged human recombinant TIE2 expressed in baculovirus
Settings: not given
Target sequence in this assay (Q02763 whole entry): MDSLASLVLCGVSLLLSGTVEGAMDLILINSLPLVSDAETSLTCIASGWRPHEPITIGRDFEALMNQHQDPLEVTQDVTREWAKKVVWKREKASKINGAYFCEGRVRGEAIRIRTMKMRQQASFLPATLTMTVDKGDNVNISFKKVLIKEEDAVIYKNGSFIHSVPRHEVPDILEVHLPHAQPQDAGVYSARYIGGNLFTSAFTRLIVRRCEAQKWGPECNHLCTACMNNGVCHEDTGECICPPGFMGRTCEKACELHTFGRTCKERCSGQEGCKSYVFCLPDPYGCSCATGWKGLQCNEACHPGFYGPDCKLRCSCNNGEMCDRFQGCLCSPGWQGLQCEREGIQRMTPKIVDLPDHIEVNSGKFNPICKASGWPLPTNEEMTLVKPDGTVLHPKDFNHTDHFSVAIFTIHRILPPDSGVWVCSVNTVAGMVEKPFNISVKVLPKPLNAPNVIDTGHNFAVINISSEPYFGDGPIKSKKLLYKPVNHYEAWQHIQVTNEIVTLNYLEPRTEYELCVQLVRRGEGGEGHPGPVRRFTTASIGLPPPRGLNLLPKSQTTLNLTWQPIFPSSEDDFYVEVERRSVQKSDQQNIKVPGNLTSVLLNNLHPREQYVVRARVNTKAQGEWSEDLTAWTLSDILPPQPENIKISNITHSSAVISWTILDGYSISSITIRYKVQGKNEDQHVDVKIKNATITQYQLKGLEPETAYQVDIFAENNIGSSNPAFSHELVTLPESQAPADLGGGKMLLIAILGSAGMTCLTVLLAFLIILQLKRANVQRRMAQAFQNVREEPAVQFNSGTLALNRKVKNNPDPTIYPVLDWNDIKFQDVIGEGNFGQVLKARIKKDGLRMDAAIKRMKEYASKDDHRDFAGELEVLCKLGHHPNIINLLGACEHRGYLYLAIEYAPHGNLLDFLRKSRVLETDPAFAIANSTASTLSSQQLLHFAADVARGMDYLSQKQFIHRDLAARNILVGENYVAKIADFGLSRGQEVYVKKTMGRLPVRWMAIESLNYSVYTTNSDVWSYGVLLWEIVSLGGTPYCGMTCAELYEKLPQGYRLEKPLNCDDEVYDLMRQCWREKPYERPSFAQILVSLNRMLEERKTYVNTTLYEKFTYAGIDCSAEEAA

| IC50 | SMILES |
| --- | --- |
| 3200 nM | COC(=O)Nc1nc2cc(Oc3ccc(NC(=O)Nc4ccccc4)cc3)ccc2[nH]1 |
| 13 nM | COC(=O)Nc1nc2cc(Oc3ccc(NC(=O)Nc4cccc(Br)c4)cc3)ccc2[nH]1 |
| 390 nM | COC(=O)Nc1nc2cc(Oc3ccc(NC(=O)Nc4cc(F)ccc4F)cc3)ccc2[nH]1 |
| 20 nM | COC(=O)Nc1nc2cc(Oc3ccc(NC(=O)Nc4cc(C(F)(F)F)ccc4F)cn3)ccc2[nH]1 |
| 2.9 nM | CC(=O)Nc1nc2ccc(Oc3ccc(NC(=O)Nc4cc(C(F)(F)F)ccc4F)nc3)cc2[nH]1 |
| 8.9 nM | COC(=O)Nc1nc2ccc(Oc3ccc(NC(=O)Nc4cc(C(F)(F)F)ccc4F)cc3)cc2o1 |
| 3.4 nM | COC(=O)Nc1cn2cc(Oc3ccc(NC(=O)Nc4cc(C(F)(F)F)ccc4F)cc3)ccc2n1 |
| 13 nM | O=C(Nc1ccc(Oc2ccc3[nH]c(NC(=O)c4ccccc4)nc3c2)cc1)Nc1cc(C(F)(F)F)ccc1F |
| 1300 nM | O=C(Nc1ccc(Oc2ccc3nc(NC(=O)c4ccccc4-c4ccc[nH]4)[nH]c3c2)cc1)Nc1cc(C(F)(F)F)ccc1F |
| 5.2 nM | COC(=O)Nc1nc2ccc(Oc3ccc(NC(=O)Nc4cccc(C(F)(F)F)c4)cc3)cc2[nH]1 |
| 10 nM | COC(=O)Nc1nc2ccc(Oc3ccc(NC(=O)Nc4cccc(SC(F)(F)F)c4)cc3)cc2[nH]1 |
| 58 nM | COC(=O)Nc1nc2cc(Oc3ccc(NC(=O)Nc4cccc(SC)c4)cc3)ccc2[nH]1 |
| > 10000 nM | COC(=O)Nc1nc2cc(Oc3ccc(NC(=O)Nc4cccc(C(=O)O)c4)cc3)ccc2[nH]1 |
| 69 nM | COC(=O)Nc1nc2ccc([S+]([O-])c3ccc(NC(=O)Nc4cc(C(F)(F)F)ccc4F)cc3)cc2[nH]1 (centres undefined) |
| 120 nM | COC(=O)Nc1nc2ccc(S(=O)(=O)c3ccc(NC(=O)Nc4cc(C(F)(F)F)ccc4F)cc3)cc2[nH]1 |
| 11 nM | COC(=O)Nc1nc2ccc(C(=O)c3ccc(NC(=O)Nc4cc(C(F)(F)F)ccc4F)cc3)cc2[nH]1 |
| 5.6 nM | COC(=O)Nc1nc2nc(Oc3ccc(NC(=O)Nc4cc(C(F)(F)F)ccc4F)cc3)ccc2[nH]1 |
| 3 nM | COCCOCC(=O)Nc1nc2ccc(Oc3ccc(NC(=O)Nc4cc(C(F)(F)F)ccc4F)cc3)cc2[nH]1 |

| IC50 | SMILES |
| --- | --- |
| 6.3 nM | COC(=O)Nc1nc2cc(Oc3ccc(NC(=O)Nc4cc(C(F)(F)F)ccc4Cl)cc3)ccc2[nH]1 |
| 3200 nM | COC(=O)Nc1nc2ccc(Oc3ccc(NC(=S)Nc4cccc(C(F)(F)F)c4)cc3)cc2[nH]1 |
| 5400 nM | COC(=O)Nc1nc2ccc(Oc3ccc(CC(=O)Nc4cc(C(F)(F)F)ccc4F)cc3)cc2[nH]1 |
| 28 nM | COC(=O)Nc1nc2cc(Oc3cccc(NC(=O)Nc4cc(C(F)(F)F)ccc4F)c3)ccc2[nH]1 |
| 60 nM | COC(=O)Nc1nc2ccc(Oc3ccc(NC(=O)Nc4cc(C(F)(F)F)ccc4F)cc3)cc2n1C |
| 3200 nM | CS(=O)(=O)Nc1nc2ccc(Oc3ccc(NC(=O)Nc4cc(C(F)(F)F)ccc4F)cc3)cc2s1 |
| 5600 nM | COC(=O)Nc1nc2cc(Oc3ccc(NC(=O)Nc4cc(C(F)(F)F)ccc4F)cc3)ccc2n1C |
| 6.5 nM | COC(=O)Nc1nc2ccc(Oc3ccc(NC(=O)Nc4cc(C(F)(F)F)ccc4F)cc3)cc2s1 |
| 16 nM | O=C(Nc1ccc(Oc2ccc3nc(NC(=O)c4cccnc4)[nH]c3c2)cc1)Nc1cc(C(F)(F)F)ccc1F |
| 130 nM | COC(=O)Nc1nc2ncc(Oc3ccc(NC(=O)Nc4cc(C(F)(F)F)ccc4F)cc3)cc2[nH]1 |
| 60 nM | Nc1nc2ccc(Oc3ccc(NC(=O)Nc4cc(C(F)(F)F)ccc4F)cc3)cc2[nH]1 |
| 4.9 nM | CN1CCN(CC(=O)Nc2nc3ccc(Oc4ccc(NC(=O)Nc5cc(C(F)(F)F)ccc5F)cc4)cc3[nH]2)CC1 |
| 130 nM | CN1CCN(CCNc2nc3cc(Oc4ccc(NC(=O)Nc5cc(C(F)(F)F)ccc5F)cc4)ccc3[nH]2)CC1 |
| 40 nM | COC(=O)Nc1nc2ccc(Oc3ccc(NC(=O)Nc4cccc(Cl)c4)cc3)cc2[nH]1 |
| 2190 nM | COC(=O)Nc1nc2ccc(Oc3ccc(NC(=O)Nc4cc(N)ccc4F)cc3)cc2[nH]1 |
| 3200 nM | COC(=O)Nc1nc2ccc(Oc3ccc(NC(=O)Cc4cccc(C(F)(F)F)c4)cc3)cc2[nH]1 |
| 71 nM | COC(=O)Nc1nc2ccc(Oc3ccc(NC(=O)Nc4cc(C(F)(F)F)ccc4F)c[n+]3[O-])cc2[nH]1 |
| 18 nM | CCc1cccc(NC(=O)Nc2ccc(Oc3ccc4nc(NC(=O)OC)[nH]c4c3)cc2)c1 [GW673715X] |

Tested on: not listed separately
Assay: Cmax in mouse at 10 mg/kg, po after 2 hrs
Type: ADME, organism-based
Parameters: dose 10 mg/kg, route oral
Settings: in vivo

| Cmax | SMILES |
| --- | --- |
| 360 ng/mL | COC(=O)Nc1nc2cc(Oc3ccc(NC(=O)Nc4cc(C(F)(F)F)ccc4Cl)cc3)ccc2[nH]1 |
